What was measured:
U2OS [1] = assay: (§1) Here: values are normalized to the negative (DMSO; defined as 0% autophagy induction) and positive (250nM Torin1; mTOR inhibitor; defined as maximal inducer of autophagy = 100%) control compounds and represented as % of autophagy induction. […] The impact of autophagy induction on cells is complex and depends on the affected target. As such, the magnitude of a phenotype may not be equally mirrored in the %-value of autophagy induction and vice versa. The dynamics of the induction may indicate the mode of activation: e.g. activation via phosphorylation or a signaling cascade may occur fast, while activation via transcription factors may take considerably longer. […] Of note, treatment concentrations may be sub-optimal for specific compounds, leading to false negative annotations.; assay type: functional, Homo sapiens; conditions: Culturing Media DMEM, 1 % Penicillin/Streptomycin, 10% Fetal bovin serum Add-On: No, Screening Media Control DMEM, Screening Media Samples DMEM
U2OS [2] = assay: as §1; assay type: functional, Homo sapiens; conditions: Culturing Media DMEM, 1 % Penicillin/Streptomycin, 10% Fetal bovin serum Add-On: No, Screening Media Control DMEM, Screening Media Samples DMEM; remark: listed apart in the source
[3] = Compound Concentration 0.5 uM, Timepoint 12 hours
[4] = Compound Concentration 0.5 uM, Timepoint 24 hours
[5] = Compound Concentration 0.5 uM, Timepoint 36 hours
[6] = Compound Concentration 0.5 uM, Timepoint 60 hours
[7] = Compound Concentration 2 uM, Timepoint 12 hours
[8] = Compound Concentration 2 uM, Timepoint 24 hours
[9] = Compound Concentration 2 uM, Timepoint 36 hours
[10] = Compound Concentration 2 uM, Timepoint 60 hours
[11] = Compound Concentration 10 uM, Timepoint 12 hours
[12] = Compound Concentration 10 uM, Timepoint 24 hours
[13] = Compound Concentration 10 uM, Timepoint 36 hours
[14] = Compound Concentration 10 uM, Timepoint 60 hours

Row | SMILES | autophagy induction (U2OS [1]; [3]) [%] | autophagy induction (U2OS [1]; [4]) [%] | autophagy induction (U2OS [1]; [5]) [%] | autophagy induction (U2OS [1]; [6]) [%] | autophagy induction (U2OS [1]; [7]) [%] | autophagy induction (U2OS [1]; [8]) [%] | autophagy induction (U2OS [1]; [9]) [%] | autophagy induction (U2OS [1]; [10]) [%] | autophagy induction (U2OS [1]; [11]) [%] | autophagy induction (U2OS [1]; [12]) [%] | autophagy induction (U2OS [1]; [13]) [%] | autophagy induction (U2OS [1]; [14]) [%] | autophagy induction (U2OS [2]; [3]) [%] | autophagy induction (U2OS [2]; [4]) [%] | autophagy induction (U2OS [2]; [5]) [%] | autophagy induction (U2OS [2]; [6]) [%] | autophagy induction (U2OS [2]; [7]) [%] | autophagy induction (U2OS [2]; [8]) [%] | autophagy induction (U2OS [2]; [9]) [%] | autophagy induction (U2OS [2]; [10]) [%] | further results
1 | CC(C)Oc1ccccc1C(=O)Nc1ccccc1C(=O)Nc1cccc(S(=O)(=O)C(F)(F)F)c1 | 3.012 | -1.737 | -1.42 | 114.268 | 8.776 | 3.511 | 2.272 | 113.873 | -16.0939 | -18.3481 | -11.2669 | 115.068 | -12.7089 | -12.2172 | -12.6004 | -17.6606 | 2.367 | 0.4504 | -2.457 | -5.945 | autophagy induction (U2OS [2]; [11]): 11.8819%; autophagy induction (U2OS [2]; [12]): 14.0193%; autophagy induction (U2OS [2]; [13]): 13.5851%; autophagy induction (U2OS [2]; [14]): 17.9189%
2 | N#Cc1ccc(NC(=O)Nc2ccccc2Br)c2nn[nH]c12 | -0.5776 | -3.216 | -2.984 | 114.391 | 0.1454 | -3.5634 | -1.494 | 114.288 | -0.261 | -3.379 | -2.529 | 114.424 | 5.86 | 3.694 | 2.244 | 1.525 | -10.6319 | -11.2857 | -14.4856 | -10.0033 | autophagy induction (U2OS [2]; [11]): -0.1618%; autophagy induction (U2OS [2]; [12]): -2.733%; autophagy induction (U2OS [2]; [13]): -3.711%; autophagy induction (U2OS [2]; [14]): -9.797%
3 | Cl.Cl.Cl.c1ccc(N2CCN(Cc3nc4ccccc4[nH]3)CC2)nc1 | -5.698 | -1.19 | -1.541 | -2680.35 | -2.768 | -5.039 | -4.313 | -2193.41 | 1.805 | -0.2364 | -2.475 | 114.324 | 6.453 | 3.88 | 1.316 | -5.738 | 16.1665 | 12.3628 | 4.3069 | -1.986 | autophagy induction (U2OS [2]; [11]): 1.702%; autophagy induction (U2OS [2]; [12]): -2.316%; autophagy induction (U2OS [2]; [13]): -1.149%; autophagy induction (U2OS [2]; [14]): 1.595%
4 | O=C(O)CC/C=C\C[C@@H]1CO[C@H](c2ccccc2Cl)O[C@@H]1c1ccccc1O | -2.932 | -1.885 | -1.616 | 114.317 | -0.3574 | -1.612 | -1.86 | 114.217 | -0.147 | -2.085 | -2.519 | 114.255 | -1.049 | 2.549 | 1.3825 | -3.206 | -3.826 | -5.258 | 1.68 | -8.886 | autophagy induction (U2OS [2]; [11]): 0.2701%; autophagy induction (U2OS [2]; [12]): -2.3073%; autophagy induction (U2OS [2]; [13]): -0.4123%; autophagy induction (U2OS [2]; [14]): -4.081%
5 | Cc1c(OCc2cccc(-c3ccc(C(=O)O)cc3)c2)cc2c(c1C)C(=O)C(C1CCCC1)C2 (centres undefined) | -1.105 | -3.325 | -3.23 | 114.413 | 3.182 | -1.283 | -1.767 | 114.283 | 2.021 | -2.128 | 0.06533 | 114.104 | 16.7916 | 7.662 | 9.473 | -0.5665 | 6.511 | 6.165 | 2.879 | -1.177 | autophagy induction (U2OS [2]; [11]): 6.9%; autophagy induction (U2OS [2]; [12]): 7.1725%; autophagy induction (U2OS [2]; [13]): 8.617%; autophagy induction (U2OS [2]; [14]): 11.2815%
6 | COc1cc(-n2cnc3cc(-c4ccc(Cl)cc4)sc3c2=O)ccc1OCCN1CCCC1 | 4.067 | -3.025 | -2.555 | 114.356 | 0.09165 | 1.732 | 0.6188 | 114.522 | -26.0106 | -13.6231 | -7.579 | 114.809 | -1.171 | 2.823 | 1.029 | -2.152 | -14.2965 | -7.54 | -8.816 | -10.4701 | autophagy induction (U2OS [2]; [11]): 7.721%; autophagy induction (U2OS [2]; [12]): 15.3334%; autophagy induction (U2OS [2]; [13]): 18.9257%; autophagy induction (U2OS [2]; [14]): 17.8082%

Reference: ChEMBL document CHEMBL5724696, “Autophagy assay results for EUbOPEN Chemogenomics Library” (2024)
